Results: US6903116B2, “Methods of treating cancer using a heat shock factor activity inhibitor” (Kaneka Corp., priority 1997, dated 2005)

How the values were obtained:
SV40 early promoter = assay: Reporter protein expression suppression, stable transformant B (SV40 early promoter β-galactosidase); assay type: cell-based, Chinese hamster; conditions: heat shock 42° C. 90 min, relative to DMSO
[1] = tested on: promoter region including the HSE sequence for HSP47; assay: Reporter protein expression suppression, stable transformant A (HSE/HSP47 promoter β-galactosidase); assay type: cell-based, Chinese hamster; conditions: heat shock 42° C. 90 min, relative to DMSO
Source text: A plasmid was produced in which a β-galactosidase gene was located downstream of a promoter region including the HSE sequence for HSP47. […] Chinese hamster ovary (CHO) cells were transfected with the plasmid to obtain stable transformant […]. These stable transformants were pre-treated with Compounds 101, 102 and 103 above and Compound C (1-acetyl-3-benzo-(1,3)dioxole-5-ylmethylene-pyrrolidin-2-one; this compound is represented by general formula (I) of the present invention wherein X is —CH2— and R^1 is acetyl) in a CO2 incubator at 37° C. for 60 min. Then, the transformants were subjected to a heat shock of 42° C. for 90 min, recovered at 37° C. for 2 hours, and incubated at a room temperature for 30 min with 4-methylumbelliferyl-β-D-galactoside as a substrate for the activity of β-galactosidase expressed in the cell. Then, the fluorescence was measured (excitation at 365 nm, emission at 450 nm). The amount of β-galactosidase expressed after a treatment with test compounds or the known HSF and HSP inhibitor quercetin as a control agent was divided by the amount of β-galactosidase expressed after a treatment with dimethylsulfoxide (DMSO) as a solvent control, thereby calculating the expression rate (%) as shown in Table 1.

[2] = Antidepressant effect in forced swimming test; assay type: in vivo; conditions: 100 mg/kg orally once, Wistar male rat; for No-Movement Period: 5-minute test; for Suppression Rate (%): versus physiological saline
Experimental: The experiment was conducted as a partial modification of the Porsolt, R. D. et al. method (Eur. J. Pharm., 47: 379, 1978). In particular, a Wistar male rat (5 weeks of age, weight: 130-150 g) was dropped into water (temperature: 25° C.) about 15 cm deep in a glass cylinder having an inner diameter of 18 cm and a height of 40 cm. The rat was taken out after 15 min, dried and put back into a home cage. […] One hundred mg/kg of each test compound, suspended in a physiological saline, was orally administered once before the 5-minute test so as to examine the antidepression effect. One hundred mg/kg of imipramine, a known antidepressant, as a control drug and 5 ml/kg of a physiological saline as a control were similarly orally administered. A shortened no-movement period was calculated as a suppression rate according to the following formula: Suppression Rate (%)=(E−F)/E×100 • E: No-Movement Period with Physiological Saline • F: No-Movement Period with Test Compound

HSP100 = assay: HSP expression induction suppression by 2-dimensional electrophoresis, HSP100; assay type: cell-based; design: key: ↑↑↑: Not Suppressed (Strongly Induced); ↓: Slightly Suppressed; ↓↓: Suppressed; ↓↓↓: Strongly Suppressed; conditions: 100 μM; COLO320DM cells; compared with DMSO control
Experimental: (§1) COLO320DM cells were pre-treated with Compounds 101, 102 and 103 at 37° C. for 60 min, followed by application of a heat shock at 42° C. for 90 min, and recovery at 37° C. for 2 hours. Then, the media were replaced with methionine-free media, and the cells were treated at 37° C. for 1 hour with ^35S-methionine to label newly synthesized proteins.
(§2) The cell lysate was obtained, subjected to an isoelectric focusing as the first dimension and then to an expansion by SDS-PAGE as the second dimension. Then, the gel was subjected to fluorography so as to compare between the amounts of HSP synthesized with and without heat induction. Comparison between the amounts of β-actin synthesized as an internal control with and without heat induction confirmed that the other proteins were normally synthesized.

COLO320DM cells = assay: Cell heat resistance suppression, colony formation assay; assay type: cell-based; conditions: 100 μM; pre-heating 42° C. 90 min, then 45° C. 60 min; all colonies counted
Experimental: COLO320DM cells were pre-treated with the above-described compounds at 37° C. for 60 min, followed by pre-heating by application of a heat shock of 42° C. for 90 min. The cells were further treated at 37° C. for 60 min. Then, the media were replaced respectively with compound-free media, and the cells were further incubated at 37° C. for 60 min. Thereafter, the cells were treated at 45° C. for 60 min, and cultured for about 10 days followed by measurement of the number of surviving cells as the number of colonies using a colony formation assay. […] The number of colonies formed without the treatment at 45° C. was substantially the same among all of the drugs.
The compounds of the present invention clearly confirmed to have the inhibitory effect on the acquisition of cell heat resistance, which is greater than that obtained with the known inhibitor quercetin. The surviving fraction was calculated according to the following formula: Surviving Fraction (%)=A/B×100 • A: Cell Survival Fraction With Treatment at 45° C. for 60 min • B: Cell Survival Fraction Without Treatment at 45° C. Cell Survival Fraction=C/D • C: Number of Surviving Cells • D: Number of Cells Seeded

[3] = tested on: HSP70 (inducible type) mRNA; assay: Transcription suppression of HSP70 (inducible type) mRNA by Northern hybridization; assay type: cell-based; conditions: COLO320DM cells, heat shock 42° C. 90 min; for Transcription Amount of HSP70 (induced type): 100 μM, DMSO = 1.0
Experimental: COLO320DM cells (ATCC CCL-220) were pre-treated with Compounds 101, 102 and 103 in a CO2 incubator at 37° C. for 60 min using 10% FCS, DMEM medium (Gibco BRL), after which the cell was subjected to a heat shock of 42° C. for 90 min. Immediately thereafter, the treated cells were collected, and total RNA was extracted from the cells by using the acid guanidine thiocyanate phenol chloroform (AGPC) method. The total RNA was electrophoresed, transferred to a nylon filter, and the amounts of HSP mRNA were compared among experimental groups by using the Northern hybridization method. cDNA of HSP70 (inducible type) labeled with [α-^32P] dCTP was used as a probe, and cDNA of β-actin was used as an internal control. […] Table 2 provides comparison in the amount of transcription of HSP70 (inducible type) among cells which were subjected to a heat shock after treatment with the respective compounds, with the amount of induced transcription in a cell treated with the control solvent DMSO being 1.0.

[4] = tested on: murine carcinoma cell (SCC VII); assay: Inhibitory effect on cancer heat resistance acquisition, tumor growth delay assay; assay type: in vivo, C3H/He mice
Experimental: A murine carcinoma cell (SCC VII) was implanted in the right leg of C3H/He mice (male, about 10 mice for each group), and the experiment was started when the tumor became about 1 cm in diameter. The tumor was heated by soaking the tumor site of each mouse under general anaesthesia into a constant temperature bath at 44° C. The inhibitory effect on the heat resistance acquisition by cancer cell was examined by a growth delay assay on the tumor. Two hundred mg/kg of each test compound, suspended in an olive oil, was intraperitoneally administered once 6 hours before the first heating. The first heating was performed for 10 minutes (H1), and the second heating was performed for 30 minutes (H2), with a recovery period of 8 hours at room temperature between the first heating and the second heating.

HSP90 = assay: HSP expression induction suppression by 2-dimensional electrophoresis, HSP90; assay type: cell-based; design: key: ↑↑↑: Not Suppressed (Strongly Induced); ↓: Slightly Suppressed; ↓↓: Suppressed; ↓↓↓: Strongly Suppressed; conditions: 100 μM; COLO320DM cells; compared with DMSO control
Experimental: as §1, §2

HSP40 = assay: HSP expression induction suppression by 2-dimensional electrophoresis, HSP40; assay type: cell-based; design: key: ↑↑↑: Not Suppressed (Strongly Induced); ↓: Slightly Suppressed; ↓↓: Suppressed; ↓↓↓: Strongly Suppressed; conditions: 100 μM; COLO320DM cells; compared with DMSO control
Experimental: as §1, §2

HSP70 = assay: HSP expression induction suppression by 2-dimensional electrophoresis, HSP70; assay type: cell-based; design: key: ↑↑↑: Not Suppressed (Strongly Induced); ↓: Slightly Suppressed; ↓↓: Suppressed; ↓↓↓: Strongly Suppressed; conditions: 100 μM; COLO320DM cells; compared with DMSO control
Experimental: as §1, §2

β-actin = assay: 2-dimensional electrophoresis, β-actin internal control; assay type: cell-based; conditions: 100 μM; COLO320DM cells
Experimental: as §1, §2

HSP47 = assay: HSP expression induction suppression by 2-dimensional electrophoresis, HSP47; assay type: cell-based; design: key: ↑↑↑: Not Suppressed (Strongly Induced); ↓: Slightly Suppressed; ↓↓: Suppressed; ↓↓↓: Strongly Suppressed; conditions: 100 μM; COLO320DM cells; compared with DMSO control
Experimental: as §1, §2

SMILES | Expression Rate (%) Transformant B (SV40 early promoter; 5 μM) | Expression Rate (%) Transformant B (SV40 early promoter; 50 μM) | Expression Rate (%) Transformant A ([1]; 5 μM) | Expression Rate (%) Transformant A ([1]; 50 μM) | No-Movement Period [2] | Suppression Rate (%) [2] | HSP Induction by Heat Shock Treatment, HSP100 (HSP100) | Surviving Fraction (%) (COLO320DM cells) | Expression Rate (%) Transformant B (SV40 early promoter; 100 μM) | Transcription Amount of HSP70 (induced type) [3] | Suppression of mRNA transcription of HSP70 (in words) [3] | Mean days before tumor tripled ([4]; 200 mg/kg i.p. 6 hours before first heating, 44° C. 10 min (H1), 8 hr, 30 min (H2)) | Mean days before tumor tripled ([4]; 200 mg/kg i.p., 44° C., 30 min heating) | Mean days before tumor tripled ([4]; 200 mg/kg intraperitoneally once, no heating) | HSP Induction by Heat Shock Treatment, HSP90 (HSP90) | Expression Rate (%) Transformant A ([1]; 100 μM) | HSP Induction by Heat Shock Treatment, HPS40 (HSP40) | HSP Induction by Heat Shock Treatment, HSP70 (HSP70) | β-actin synthesis by Heat Shock Treatment (internal control) (β-actin) | HSP Induction by Heat Shock Treatment, HSP47 (HSP47)
CC(=O)N1CCC(=Cc2ccc3c(c2)OCO3)C1=O [Compound C, 1-acetyl-3-benzo-(1,3)dioxole-5-ylmethylene-pyrrolidin-2-one] | 91% | 88% | 40% | 11% |  |  |  |  |  |  |  |  |  |  |  |  |  |  |  | 
CN(C)CCCN1c2ccccc2CCc2ccccc21 [Imipramine, imipramine, reference compound] |  |  |  |  | 180 s | 12% |  |  |  |  |  |  |  |  |  |  |  |  |  | 
O=CN1CC/C(=C\c2ccc3c(c2)OCO3)C1=O [Compound 102] | 88% | 75% | 57% | 3% |  |  | ↓↓↓ | <1% | 69% | 0.04 | specifically and significantly suppressed | 12.6 days | 13.3 days | 8.4 days | ↓↓↓ | 0% | ↓↓↓ | ↓↓↓ | no change | ↓↓↓
O=C1NCC/C1=C\c1ccc2c(c1)OCO2 [Compound 101] | 90% | 61% | 46% | 1% | 145 s | 29% | ↓↓↓ | <1% |  | 0.03 | specifically and significantly suppressed |  |  |  | ↓↓↓ |  | ↓↓↓ | ↓↓↓ | no change | ↓↓↓
O=c1c(O)c(-c2ccc(O)c(O)c2)oc2cc(O)cc(O)c12 [Quercetin, quercetin, reference compound] | 96% | 82% | 99% | 25% |  |  | ↓ | 6% | 58% | 0.4 |  |  |  |  | ↓ | 6% | ↓↓ | ↓ | no change | ↓↓
O=C1NCCC/C1=C\c1ccc2c(c1)OCO2 [Compound 103] | 93% | 62% | 47% | 10% | 90 s | 56% | ↓↓↓ | <1% | 46% | 0.1 | specifically and significantly suppressed |  |  |  | ↓↓↓ | 2% | ↓↓↓ | ↓↓↓ | no change | ↓↓↓
